Structures are written as SMILES. The source made the active and inactive calls. The rule behind the calls is not given here.

Holding throughout (format): functional
The nature of assay [1]: Antiplatelet activity in human platelet rich plasma assessed as inhibition of arachidonic acid-induced platelet aggregation at 100 uM preincubated for 3 mins before arachidonic acid challenge by turbidimetric method.
The nature of assay [2]: Antiplatelet activity in human platelet rich plasma assessed as inhibition of arachidonic acid-induced platelet aggregation preincubated for 3 mins before arachidonic acid challenge by turbidimetric method.
Assay [3] can be described thus: (§1) Antiplatelet activity in human platelet rich plasma assessed as inhibition of ADP-induced platelet aggregation at 10 uM preincubated for 3 mins before ADP challenge by turbidimetric method.
Assay [4] in a line: (§2) Antiplatelet activity in human platelet rich plasma assessed as inhibition of arachidonic acid-induced platelet aggregation at 1 uM preincubated for 3 mins before arachidonic acid challenge by turbidimetric method.
Assay [5] can be described thus: (§3) Antiplatelet activity in human platelet rich plasma assessed as inhibition of arachidonic acid-induced platelet aggregation at 10 uM preincubated for 3 mins before arachidonic acid challenge by turbidimetric method.
The nature of assay [6]: Antiplatelet activity in human platelet rich plasma assessed as inhibition of collagen-induced platelet aggregation at 10 uM preincubated for 3 mins before collagen challenge by turbidimetric method.
Assay [7] relates to Platelet. Described as §1.
Assay [8] has as its system Platelet. The assay is described as §2.
The nature of assay [9]: Antiplatelet activity in human platelet rich plasma assessed as inhibition of collagen-induced platelet aggregation at 1 uM preincubated for 3 mins before collagen challenge by turbidimetric method.
Assay [10] concerns Platelet. The assay is described as §3.

Regarding `CCOC(=O)c1cc(-c2ccc(Cl)cc2)n(-c2ccc(Cl)nn2)n1`, the inhibition at 100 µM in assay [1] was found to be 67%.

As for `COc1ccc(-n2nc(C(=O)N3CCCCC3)cc2C)nn1`, the IC50 in [2] is above 10000 nM.

As for `COc1ccc(-n2nc(C(=O)Oc3ccc4ccccc4c3)cc2-c2ccc(Cl)cc2)nn1`, the values for the inhibition at 10 µM in [3], in assay [5] and in [6] were 3.34%, 86.3% and 22.4%, respectively. For the same molecule, in assay [4], the inhibition at 1 µM is 2.36%.

As to `O=C(c1cc(-c2ccc(Cl)cc2)n(-c2ccc(=O)[nH]n2)n1)N1CCCCC1`, the IC50 in assay [2] came out at 2090 nM.

With `COc1ccc(-n2nc(C(=O)N3CCN(c4ccc(F)cc4)CC3)cc2-c2ccc(Cl)cc2)nn1`, the inhibition result in [7] and in assay [8] was “inactive” throughout. Moreover, the inhibition at 10 µM in assay [5] is 79.7%; in [6], 32.2%.

With `COc1ccc(-n2nc(C(=O)Oc3cccnc3Cl)cc2-c2ccc(Cl)cc2)nn1`, the inhibition result in [7] and in [8] was “inactive” throughout. The inhibition at 10 µM in assay [5] came to 86.5%; in assay [6], 8.49%.

In the case of `COc1ccc(-n2nc(C(=O)N3CCOCC3)cc2-c2ccc(Cl)cc2)nn1`, the figures for the inhibition at 10 µM in [3], in [5] and in assay [6] were 11.3%, 94.8% and 70.9%, respectively. Besides, the inhibition at 1 µM in [4] was 92.7%; in assay [9], 74.2%. Further, the half-inhibitory concentration (IC50) in [2] stood at 83 nM.

For the molecule `Cn1nc(-c2ccc(Cl)cc2)cc1C(=O)N1CCCCC1`, the half-inhibitory concentration (IC50) in assay [2] was above 10000 nM.

On to `COc1ccc(-n2nc(C(=O)OCCC(C)C)cc2-c2ccc(Cl)cc2)nn1`, for which the inhibition at 10 µM amounted to 6.77% in assay [3], 91.2% in assay [5] and 66.7% in assay [6]. Moreover, the results for the inhibition at 1 µM in assay [4] and in assay [9] were 19% and 34.2%, respectively. The IC50 in [2] is 1330 nM.

In the case of `COc1ccc(-c2onc(C(=O)N3CCOCC3)c2-c2ccc(Cl)cc2)cc1`, the IC50 in assay [2] is 18400 nM.

Turning to `COc1ccc(-n2nc(C(=O)N3CCN(c4ccc(C)cc4)CC3)cc2-c2ccc(Cl)cc2)nn1`, in assay [7], the inhibition result is “inactive”. In addition, in assay [4], the inhibition at 1 µM came out at 3.96%. The inhibition at 10 µM in assay [5] turned out to be 97.6%; in assay [6] it was 20.1%. Further, the IC50 in assay [2] was found to be 4670 nM.

As for `COc1ccc(-n2nc(C(=O)N3CCN(c4ncccn4)CC3)cc2-c2ccc(Cl)cc2)nn1`, the inhibition at 10 µM in [3] came out at 2.7%; in [6], 22.9%. For the same molecule, the inhibition entry in assay [8] and in [10] was “inactive” each time.

With `COc1ccc(-n2nc(C(=O)Nc3ccncc3)cc2-c2ccc(Cl)cc2)nn1`, the values for the inhibition at 10 µM in [3], in [5] and in [6] were 8.14%, 80.5% and 73.6%, respectively. Moreover, the inhibition at 1 µM was 84.9% in assay [4] and 77.6% in assay [9]. In assay [2], the IC50 was determined as 110 nM.

With `COc1ccc(-n2nc(C(=O)N3CCN(c4ccc(C(F)(F)F)cn4)CC3)cc2-c2ccc(Cl)cc2)nn1`, the results for the inhibition at 10 µM in assay [3], in assay [5] and in assay [6] were 6.8%, 65.5% and 16%, respectively. Further, in assay [4], the inhibition at 1 µM stood at 10.9%. The IC50 in [2] is 5490 nM.

As to `CCCOc1ccc(OC(=O)c2cc(-c3ccc(Cl)cc3)n(-c3ccc(OC)nn3)n2)cc1`, in assay [7], the inhibition entry was “inactive”. The inhibition at 1 µM in assay [4] worked out at 3.87%; in assay [9] it was 32.2%. In addition, the figures for the inhibition at 10 µM in assay [5] and in assay [6] were 93% and 61.9%, respectively.

Regarding `COc1ccc(-n2nc(C(=O)N3CCCCC3)cc2-c2ccc(Cl)cc2)cc1`, the IC50 in assay [2] was determined as 7.9 nM.

Turning to `COc1ccc(-n2nc(C(=O)N3CCOCC3)cc2-c2ccc(Cl)cc2)cc1`, the IC50 in [2] came out at 7.3 nM.

As to `O=C(c1cc(-c2ccc(Cl)cc2)n(-c2ccc(=O)[nH]n2)n1)N1CCOCC1`, in assay [2], the IC50 was 12600 nM.

For the molecule `COc1ccc(-n2nc(C(=O)N3CCCC3)cc2-c2ccc(Cl)cc2)nn1`, in [2], the IC50 stood at 15 nM.

In the case of `COc1ccc(-n2nc(C(=O)N3CCOCC3)cc2C)nn1`, the IC50 in assay [2] is above 10000 nM.

For the molecule `O=C(c1cc(-c2ccc(Cl)cc2)n[nH]1)N1CCOCC1`, the IC50 in [2] is above 10000 nM.

`COc1ccc(-n2nc(C(=O)Oc3ccc(-n4ccnc4)cc3)cc2-c2ccc(Cl)cc2)nn1`: the inhibition entry in [7] is “inactive”. Besides, in assay [4], the inhibition at 1 µM worked out at 5.25%. In addition, the inhibition at 10 µM in assay [5] was 90%; in [6], 2.11%.

As to `COc1ccc(-n2nc(C(=O)Oc3ccc(C)cc3)cc2-c2ccc(Cl)cc2)nn1`, the inhibition result in assay [7] is “inactive”. Further, in [4], the inhibition at 1 µM was 23.6%. Besides, the results for the inhibition at 10 µM in assay [5] and in assay [6] were 95% and 48.5%, respectively.

As to `COc1ccc(NC(=O)c2cc(-c3ccc(Cl)cc3)n(-c3ccc(OC)nn3)n2)cc1`, the inhibition at 10 µM in [3] turned out to be 3.92%; in assay [5] it was 79.9%; in assay [6], 72.1%. In addition, the inhibition at 1 µM in assay [4] came to 94.2%; in [9] it was 43.6%. Further, in assay [2], the IC50 stood at 400 nM.

Regarding `Cn1nc(-c2ccc(Cl)cc2)cc1C(=O)N1CCOCC1`, the IC50 in [2] is above 10000 nM.

As to `COc1ccc(-n2nc(CCC(=O)N3CCCCC3)cc2-c2ccc(Cl)cc2)nn1`, the IC50 in [2] is 920 nM.

On to `COc1ccc(-c2onc(C(=O)N3CCCCC3)c2-c2ccc(Cl)cc2)cc1`, for which the concentration for half-maximal inhibition (IC50) in assay [2] worked out at 5030 nM.

Take `COc1ccc(-n2nc(CCC(=O)N3CCOCC3)cc2-c2ccc(Cl)cc2)nn1`: the IC50 in assay [2] was 1080 nM.

For `O=C(c1cc(-c2ccc(Cl)cc2)n[nH]1)N1CCCCC1`, the IC50 in assay [2] is above 10000 nM.

Turning to `CS(=O)(=O)c1ccc(-n2nc(C(=O)N3CCCCC3)cc2-c2ccc(Cl)cc2)nn1`, the IC50 in assay [2] turned out to be 19600 nM.

As to `COc1ccc(-n2nc(C(=O)Oc3ccc(C4CCCC4)cc3)cc2-c2ccc(Cl)cc2)nn1`, the inhibition result in assay [7] and in assay [8] was “inactive” in each case. In addition, the inhibition at 10 µM came to 86.7% in assay [5] and 19.9% in assay [6].

As to `COc1ccc(-n2nc(C(=O)Nc3ccc(Cl)cc3)cc2-c2ccc(Cl)cc2)nn1`, the inhibition at 10 µM was found to be 7.93% in assay [3], 74.3% in assay [5] and 70.5% in [6]. The inhibition at 1 µM in [4] is 80.9%; in assay [9] it was 25.7%. Besides, the IC50 in assay [2] was 610 nM.

Consider `COc1ccc(-n2nc(C(=O)N3CCCCC3)cc2-c2ccc(Cl)cc2)nn1`, for which the inhibition entry in [7] was “inactive”. The inhibition at 1 µM came to 92.9% in [4] and 76.8% in [9]. The inhibition at 10 µM is 94.8% in [5] and 71.1% in [6]. The IC50 in assay [2] was determined as 41 nM.

For the molecule `CS(=O)(=O)c1ccc(-n2nc(C(=O)N3CCOCC3)cc2-c2ccc(Cl)cc2)nn1`, in [2], the IC50 is above 20000 nM.

With `CC(=O)Oc1ccccc1C(=O)O` [ASPIRIN], the IC50 in assay [2] was 7760 nM.

For the molecule `COc1ccc(-n2nc(C(=O)Oc3cccc(C(C)C)c3)cc2-c2ccc(Cl)cc2)nn1`, the inhibition entry in assay [7] was “inactive”. Further, in assay [4], the inhibition at 1 µM turned out to be 8.97%. The inhibition at 10 µM is 84% in assay [5] and 42.3% in assay [6].

Regarding `COc1ccc2c(c1)c(CC(=O)O)c(C)n2C(=O)c1ccc(Cl)cc1` [INDOMETHACIN], the IC50 in [2] was 1620 nM.

For `COc1ccc(OC(=O)c2cc(-c3ccc(Cl)cc3)n(-c3ccc(OC)nn3)n2)cc1`, the inhibition result in [7] is “inactive”. The inhibition at 1 µM in assay [4] was 6.05%. Further, the inhibition at 10 µM amounted to 84.2% in [5] and 24.2% in assay [6].

For `COc1ccc(-n2nc(C(=O)N3CCCC3)cc2-c2ccc(Cl)cc2)cc1`, the concentration for half-maximal inhibition (IC50) in assay [2] stood at 5.7 nM.

Values taken from ChEMBL document CHEMBL2390887, “Pyrazole derivatives as inhibitors of arachidonic acid-induced platelet aggregation” (Eur J Med Chem, 2013).
